Experimental data: patent publication US20150018427A1, “COMPOUNDS FOR TREATING PARVOVIRUS INFECTION” (ARATANA THERAPEUTICS NV, priority 2012, published 2015)
Structures can show the parent of a compound that is named as a salt.

Columns and labels:
[1] = system: feline panleukopenia virus (FPV); test: FPV DNA reduction by quantitative PCR, CrFK cells; format: cell-based; conditions: read-out: EC50-value (μM) for FPV, DNA reduction
Experimental: (§1) Amantadine, amantadine hydrochloride (HCl) and memantine were dissolved in Dulbecco's phosphate buffered saline (DPBS) at a concentration of 10 mM. Crandell Reese Feline Kidney (CrFK) cells were grown in Dulbecco minimum essential medium (DMEM, Life Technologies) containing 1% sodium bicarbonate (Life Technologies), 1% L-Glutamine (Life Technologies) and 5% fetal calf serum (FCS, Biochrom). In a 24 well plate 100,000 CrFK cells were seeded on day 0. On day 1, the medium was removed and 10 TCID50 of FPV or 10 TCID50 CPV-2c was added and incubated for 2 h at 37° C. in humidified conditions. After incubation, medium was removed and CrFK cells were washed with DPBS. Subsequently, a serial dilution of compound in culture medium was added (250, 50, and 10 μM). Infected cells without any added compound were used as positive controls (virus control) and uninfected cells were used as negative controls (cell control). The cells were incubated at 37° C. in humidified conditions. After 4 days of incubation medium containing newly produced virus particles was collected and viral titers were determined using CrFK cells. In addition, 200 μL of supernatant was extracted to obtain FPV or CPV-2c DNA using the QIAamp DNA extraction kit (Qiagen). The extracted FPV DNA was detected by a real time PCR using the Taqman Fast Universal mastermix (Life Technologies) and the standard Fast cycling protocol using the StepOnePlus real time device (Applied Biosystems). In the PCR mixture an optimized 900 nM of each forward and reverse primer was used and 250 nM FAM-BHQ1 labeled probe as published by Decaro et al. (J. Virol. Methods 2008, 147, 67-71). EC50 values were determined as the concentration of compound that inhibited 50% of the viral DNA.
2-methyladamantan-2-amine HCl and 2-ethyladamantan-2-amine HCl were dissolved in Dulbecco's phosphate buffered saline (DPBS) at a concentration of 10 mM. The inhibition experiments and the preparation thereof were performed as described above for Example 2.

[2] = system: feline panleukopenia virus (FPV); test: CPE visual scoring assay, FPV in CrFK cells; format: cell-based
Experimental: Crandell Reese Feline Kidney (CrFK) cells were grown in Dulbecco minimum essential medium (DMEM, Life Technologies) containing 1% sodium bicarbonate (Life Technologies), 1% L-Glutamine (Life Technologies) and 5% fetal calf serum (FCS, Biochrom). In a 96 well plate a serial dilution of compound was added together with 10 TCID50 of feline panleukopenia virus (FPV) or 10 TCID50 canine parvovirus 2c (CPV-2c) and 20,000 CrFK cells. Infected cells without any added compound were used as positive controls (virus control) and uninfected cells were used as negative controls (cell control). The cells were incubated for 4 days and viral cytopathogenic effect (CPE) was scored visually. EC50-values were determined as the concentration of compound that inhibited 50% of the viral replication as compared with virus control.
2-methyladamantan-2-amine HCl and 2-ethyladamantan-2-amine HCl were dissolved in Dulbecco's phosphate buffered saline (DPBS) at a concentration of 10 mM. The inhibition experiments and the preparation thereof were performed as described above for Example 2. […]

[3] = system: canine parvovirus 2c (CPV-2c); test: CPV-2c DNA reduction by quantitative PCR, CrFK cells; format: cell-based
[4] = system: canine parvovirus 2c (CPV-2c); test: CPE visual scoring assay, CPV-2c in CrFK cells; format: cell-based
[5] = system: canine parvovirus 2c (CPV-2c); test: CPV-2c titer reduction, titration of produced virus on CrFK cells; format: cell-based
[6] = system: feline panleukopenia virus (FPV); test: FPV titer reduction, titration of produced virus on CrFK cells; format: cell-based
Experimental: as §1
Reduction of CPV-2c and FPV titers under increasing concentrations of amantadine hydrochloride (HCl) and memantine are shown in Table 3a and 3b, respectively. Viral titers are determined by titration of the produced virus on CrFK cells and incubated for 5 days. The obtained titers where compared with the control (virus production without addition of compound).

[7] = system: canine parvovirus type 2 (CPV2); test: Treatment of dog naturally infected with canine parvovirus type 2; format: in vivo; conditions: beagle puppy, CPV2 PCR-positive, 10 mg/kg twice daily for 2 weeks
[8] = Feline panleukopenia virus, CRFK, Table 4b, quantitative PCR
[9] = Feline panleukopenia virus, CRFK, read-out: EC50-value (μM) for FPV, Table 4a, CPE visual scoring assay
[10] = CRFK, Table 4b, quantitative PCR, read-out: EC50-value (μM) for CPV-2c, DNA reduction
[11] = Canine parvovirus, CRFK, Table 4a, CPE visual scoring assay, read-out: EC50-value (μM) for CPV-2c
[12] = Feline panleukopenia virus, CRFK, 96 h, Table 1, CPE visual scoring, CrFK cells, 10 TCID50, 4 days, read-out: EC50-value (μM) for FPV
[13] = Canine parvovirus, 96 h, Table 1, CPE visual scoring, CrFK cells, 10 TCID50, 4 days, read-out: EC50-value (μM) for CPV-2c
[14] = 96 h, Table 2, viral DNA in supernatant by quantitative PCR, CrFK cells, 4 days, read-out: EC50-value (μM) for CPV-2c, DNA reduction
[15] = Feline panleukopenia virus, CRFK, 96 h, Table 2, viral DNA in supernatant by quantitative PCR, CrFK cells, 4 days
[16] = Canine parvovirus, CRFK, 96 h, read-out: EC50-value (μM) for CPV-2c, Table 1, CPE visual scoring, CrFK cells, 10 TCID50, 4 days

## CC1(N)C2CC3CC(C2)CC1C3 (centres unmarked) [2-methyladamantan-2-amine]
[1]; [8]
  EC50: < 0.781 µM
[2]; [9]
  EC50: 1.95 µM
[3]; [10]
  EC50: 1.14 µM
[4]; [11]
  EC50: 2.25 µM

## NC12CC3CC(C1)CC(O)(C3)C2 [3-amino-1-amantadol]
[2]; Table 1, CPE visual scoring, CrFK cells, 10 TCID50, 4 days, read-out: EC50-value (μM) for FPV
  EC50: > 250 µM
[4]; Table 1, CPE visual scoring, CrFK cells, 10 TCID50, 4 days, read-out: EC50-value (μM) for CPV-2c
  EC50: > 250 µM

## NC1C2CC3CC(C2)CC1C3 (centres unmarked) [2-adamantylamine HCl, 2-adamantylamine hydrochloride]
[2]; [12]
  EC50: 17.3 µM
[4]; [13]
  EC50: 5.12 µM

## NCC12CC3CC(CC(C3)C1)C2 [1-adamantanemethylamine]
[2]; [12]
  EC50: > 250 µM
[4]; [13]
  EC50: > 250 µM

## CCC1(N)C2CC3CC(C2)CC1C3 (centres unmarked) [2-ethyladamantan-2-amine]
[1]; [8]
  EC50: 1.31 µM
[2]; [9]
  EC50: 2.42 µM
[3]; [10]
  EC50: 2.44 µM
[4]; [11]
  EC50: 4.2 µM

## Cl.NC12CC3CC(CC(C3)C1)C2 [Amantadine HCl, 1-Aminoadamantane hydrochloride]
[1]; Table 2, viral DNA in supernatant by quantitative PCR, CrFK cells, 4 days, hydrochloride
  EC50: 30.1 µM
[2]; Table 1, CPE visual scoring, CrFK cells, 10 TCID50, 4 days, hydrochloride, read-out: EC50-value (μM) for FPV
  EC50: 33.3 µM
[5]; 10 μM compound
  Titer reduction of CPV-2c, log10 reduction compared with control: 0.50 log10
[5]; 50 μM compound
  Titer reduction of CPV-2c, log10 reduction compared with control: 2.71 log10
[5]; 250 μM compound
  Titer reduction of CPV-2c, log10 reduction compared with control: 2.71 log10
[6]; 10 μM compound
  Titer reduction of FPV, log10 reduction compared with control: 0 log10
[6]; 50 μM compound
  Titer reduction of FPV, log10 reduction compared with control: 1.50 log10
[6]; 250 μM compound
  Titer reduction of FPV, log10 reduction compared with control: 2.44 log10
[7]
  Clinical signs of parvovirus infection: improved from day 3 onwards
  Recovery after 2 weeks of treatment: recovered completely
[3]; [14]
  EC50: 6.59 µM
[4]; [13]
  EC50: 14 µM

## CC12CC3CC(C)(C1)CC(N)(C3)C2 [Memantine, memantine]
[1]; [15]
  EC50: 42.6 µM
[2]; [12]
  EC50: 23.3 µM
[5]; 10 μM compound
  Titer reduction of CPV-2c, log10 reduction compared with control: 0 log10
[5]; 50 μM compound
  Titer reduction of CPV-2c, log10 reduction compared with control: 0.50 log10
[5]; 250 μM compound
  Titer reduction of CPV-2c, log10 reduction compared with control: 1.55 log10
[6]; 10 μM compound
  Titer reduction of FPV, log10 reduction compared with control: 0 log10
[6]; 50 μM compound
  Titer reduction of FPV, log10 reduction compared with control: 0.71 log10
[6]; 250 μM compound
  Titer reduction of FPV, log10 reduction compared with control: 1.41 log10
[3]; [14]
  EC50: 17.9 µM
[4]; [13]
  EC50: 23.9 µM

## CNC12CC3CC(CC(C3)C1)C2 [N-methyl-1-adamantylamine]
[2]; [12]
  EC50: > 250 µM
[4]; [13]
  EC50: > 250 µM

## NC12CC3CC(CC(C3)C1)C2 [Amantadine, amantadine]
[1]; [15]
  EC50: 57.1 µM
[2]; [12]
  EC50: 18.7 µM
[5]; 10 μM compound
  Titer reduction of CPV-2c, log10 reduction compared with control: 0 log10
[5]; 50 μM compound
  Titer reduction of CPV-2c, log10 reduction compared with control: 2.23 log10
[5]; 250 μM compound
  Titer reduction of CPV-2c, log10 reduction compared with control: 2.23 log10
[6]; 10 μM compound
  Titer reduction of FPV, log10 reduction compared with control: 0 log10
[6]; 50 μM compound
  Titer reduction of FPV, log10 reduction compared with control: 0.48 log10
[6]; 250 μM compound
  Titer reduction of FPV, log10 reduction compared with control: 1.43 log10
[3]; CRFK, 96 h, read-out: EC50-value (μM) for CPV-2c, DNA reduction, Table 2, viral DNA in supernatant by quantitative PCR, CrFK cells, 4 days
  EC50: 53.5 µM
[4]; [16]
  EC50: 22.6 µM

## CC(N)C12CC3CC(CC(C3)C1)C2 (centres unmarked) [Rimantadine, rimantadine]
[2]; [12]
  EC50: > 250 µM
[4]; [16]
  EC50: > 250 µM
